Eight molecules from PMC11054303, “Design and Synthesis of Novel N-Benzylidene Derivatives of 3-Amino-4-imino-3,5-dihydro-4H-chromeno[2,3-d]pyrimidine under Microwave, In Silico ADME Predictions, In Vitro Antitumoral Activities and In Vivo Toxicity” (Pharmaceuticals, 2024) can be followed below.

Data set [1] deals with HCT 116. The experiment in a line: Antiproliferative assay, HCT 116. The class given is cell-based, human. The note with it: for IC50: Homo sapiens, HCT-116, 48 h incubation, average of three assays, standard error ± 0.5 μM; for Selectivity Index (SI) HCT 116: SI = IC50 fibroblasts/IC50 on HCT 116. The method, then: (§1) The potential antiproliferative activity of these novel 3-(N-phenylmethyliden)amino-4-imino-3,5-dihydro-4H-chromeno[2,3-d]pyrimidine 10(a-i) and 10-(N-phenylmethyliden)amino-11-imino-11H-naphto[1′,2′:5,6]pyrano[2,3-d]pyrimidine 10(j-l) was evaluated in a panel of eight tumoral cell lines and in diploid skin fibroblasts used as normal cell lines for control. For these antitumor assays, chosen cell lines represent diverse types of human cancer, which are, respectively, human hepatocellular carcinoma (Huh7 D12), human colon adenocarcinoma (Caco2), human breast adenocarcinoma (MDA-MB231), MDA-MB468 for human breast carcinoma which correspond to the Triple Negative Breast Cancer (TNBC), human colon carcinoma (HCT116), PC3 as cell line initiated from bone metastasis of grade IV prostatic adenocarcinoma from a person, MCF7 as breast cancer line isolated from a person and PANC1, as human pancreatic cancer cell line. The potential antiproliferative activity was preliminarily evaluated in vitro at a 25 μM single dose.
(§2) The IC50 was calculated from the full dose-response curve and used as a parameter for the antiproliferative activity of the new compounds.
(§3) Skin diploid fibroblastic cells were provided by BIOPREDIC International Company (Rennes, France). Huh-7D12 (Ref ECACC: 01042712), Caco2 (Ref ECACC: 86010202), MDA-MB-231 (Ref ECACC: 92020424), MDA-MB-468, HCT-116 (Ref ECACC: 91091005), PC3 (Ref ECACC: 90112714), and MCF7 cell lines were obtained from the ECACC collection. PANC1 cell lines, a generous gift of LBAI Inserm 1227 (Brest, France). Cells were grown according to ECACC recommendations in DMEM for Huh-D12, MDA-MB-231, MDA-MB-468 and fibroblast, in EMEM for Caco2, in McCoy’s for HCT-116 and RPMI for PC3 at 37 °C and 5% CO2. All culture media with 10% of FBS, 1% of penicillin-streptomycin and 2 mM glutamine.
(§4) Chemicals were solubilized in DMSO at a concentration of 10 mM (stock solution) and diluted in a culture medium to the desired final concentrations. […] The toxicity test of the chemicals on these cells was as follows: 2 × 10^3 cells for HCT-116 cells or 4 × 10^3 for the other cells were seeded in 96-multi-well plates in triplicate and left for 24 h for attachment, spreading and growing. Then, cells were exposed for 48 h to increasing concentrations of chemicals, ranging from 0.1 μM to 25 μM, in a final volume of 120 μL of culture medium. After 48 h of treatment, cells were washed in PBS and fixed in a cooled 90% ethanol/5% acetic acid solution for 20 min. The nuclei were stained with Hoechst 3342 (B2261 Merck Sigma-Aldrich) and counted. Image acquisition and analysis were performed using automated imaging analysis with a Cellomics Arrayscan VTI/HCS Reader (Thermo/Scientific, Waltham, MA, USA). The survival percentages were calculated as the percentage of cell number after chemical treatment over cell number after DMSO treatment. The IC50 was graphically determined.

Data set [2] deals with Caco2. Nature of the data set: Antiproliferative assay, Caco2. The settings on record: Homo sapiens, Caco-2; 48 h incubation; average of three assays, standard error ± 0.5 μM. The class given is cell-based, human. The method, then: as §1, §2, §3, §4
Data set [3] has as its system PC3. Nature of the data set: Antiproliferative assay, PC3. It counts as cell-based, human. The settings on record: for IC50: Homo sapiens, PC-3, 48 h incubation, average of three assays, standard error ± 0.5 μM; for Selectivity Index (SI) PC3: SI = IC50 fibroblasts/IC50 on PC3. The method, then: as §1, §2, §3, §4
Data set [4] deals with MCF7. Nature of the data set: Antiproliferative assay, MCF7. The class given is cell-based, human. The settings on record: for IC50: Homo sapiens, MCF7, 48 h incubation, average of three assays, standard error ± 0.5 μM; for Selectivity Index (SI) MCF7: SI = IC50 fibroblasts/IC50 on MCF7. The method, then:
as §1, §2, §3, §4

Data set [5] has as its system PANC1. Nature of the data set: Antiproliferative assay, PANC1. The class given is cell-based, human. The settings on record: for IC50: Homo sapiens, PANC-1, 48 h incubation, average of three assays, standard error ± 0.5 μM. The method, then: as §1, §2, §3, §4
The subject of data set [6] is MDA MB468. The experiment in a line: Antiproliferative assay, MDA MB468. The class given is cell-based, human. The note with it: for IC50: Homo sapiens, MDA-MB-468, 48 h incubation, average of three assays, standard error ± 0.5 μM; for Selectivity Index (SI) MDA MB468: SI = IC50 fibroblasts/IC50 on MDA MB468. The method, then:
as §1, §2, §3, §4

The test system of data set [7] is MDA MB231. The experiment in a line: Antiproliferative assay, MDA MB231. It counts as cell-based, human. The settings on record: for IC50: Homo sapiens, MDA-MB-231, 48 h incubation, average of three assays, standard error ± 0.5 μM; for Selectivity Index (SI) MDA MB231: SI = IC50 fibroblasts/IC50 on MDA MB231. The method, then:
as §1, §2, §3, §4

In data set [8] the test system is Fibroblasts. Nature of the data set: Antiproliferative assay, diploid skin fibroblasts (normal cells). The class given is cell-based. The note with it: for IC50: Fibroblast, 48 h incubation, average of three assays, standard error ± 0.5 μM. The method, then: as §1, §2, §3, §4
Data set [9] relates to Huh7 D12. Nature of the data set: Antiproliferative assay, Huh7 D12. It counts as cell-based, human. The note with it: for IC50: Homo sapiens, Huh-7D12, 48 h incubation, average of three assays, standard error ± 0.5 μM; for Selectivity Index (SI) Huh7 D12: SI = IC50 fibroblasts/IC50 on Huh7 D12. The method, then: as §1, §2, §3, §4
Data set [10] concerns tumor cell lines. The experiment in a line: Antiproliferative assay, panel of tumoral cell lines. It counts as cell-based. The settings on record: Homo sapiens, 48 h, summary over tumoral cell lines of Table 3, 48 h; read-out: IC50 on tumor cell lines (span over the panel). The method, then: as §1, §2, §3, §4
Data set [11] is described as follows: Antiproliferative assay, Caco2. The class given is cell-based, human. The settings on record: human, Caco-2; SI = IC50 fibroblasts/IC50 on Caco2; read-out: Selectivity Index (SI) Caco2. The method, then:
as §1, §2, §3, §4

The subject of data set [12] is zebrafish Danio rerio embryos. Nature of the data set: Zebrafish embryo toxicity assay (Zebratox, FET).
Method: Fertilized eggs at 24–48 h post-fertilization (hpf) were selected and transferred to a 96-well plate (1 embryo/well). […] DMSO (0.6%) was used as vehicle control for the test compounds. The exposure duration continued up to 72 hpf because it is the endpoint of embryonic development [41]. The dead embryos were eliminated, and the fertilized eggs were imaged at 0, 24, 48 and 72 hpf.
Eggs were collected 2 h post-fertilization (hpf) and kept in glass Petri dishes containing water for subsequent examination under a binocular microscope to confirm fertilization. […] Chemical treatments were performed by adding DMSO alone (negative control), or test molecule. These experiments were performed in four technical replicates.
The experiments were performed using a Zeiss inverted fluorescent microscope (Observer Z1). The zebrafish toxicological test (Zebratox) was realized as follows: the 24 h post-fertilization embryos were arrayed by hand with one embryo per well in black-walled 96-well microplates for fluorescence assays (Perkin Elmer, Waltham, MA, USA). The embryos were treated before hatching from 0 to 72 h post-fertilization. The 20 mM DMSO stock chemicals were diluted in fish water and added to the wells at final concentrations from 0.0 2µM to 5 μM. The negative control (0.25% DMSO) was added to each replicate plate. The experiments were realized in triplicate in three independent plates. […] The zebrafish fertilized eggs were provided by the ImPACcell-Biosit Zebrafish facilities (Rennes, France).

The IC50 is the concentration at which inhibition is half-maximal. On to `CCN(CC)c1ccc2c(c1)Oc1ncn(/N=C/c3ccc(N(C)C)cc3)c(=N)c1C2` [10a], for which the IC50 in [1], in [2], in data set [3], in data set [4], in data set [5] and in data set [6] was over 25 µM throughout. Further, the IC50 in data set [7], in data set [8] and in data set [9] was over 25 µM each time.
`CCN(CC)c1ccc2c(c1)Oc1ncn(/N=C/c3ccccc3O)c(=N)c1C2` [10b]: the concentration for half-maximal inhibition (IC50) in [1], in [2], in data set [3], in data set [4], in data set [5] and in [6] was over 25 µM each time. In addition, the IC50 in data set [7], in [8] and in [9] was over 25 µM each time.
As to `CCN(CC)c1ccc2c(c1)Oc1ncn(/N=C/c3ccccc3)c(=N)c1C2` [10c], the IC50 in data set [1], in data set [2], in data set [3], in [4], in data set [5] and in data set [6] was over 25 µM in each case. Also, the IC50 in [7], in data set [8] and in data set [9] was over 25 µM throughout.
Consider `CN(C)c1ccc(/C=N/n2cnc3c(c2=N)Cc2ccccc2O3)cc1` [10d, (3E) 3-N-(4-Dimethylaminophenylmethylidene)amino-4-imino-3,5-dihydro-4H-chromeno[2,3-d]pyrimidine], for which the IC50 in [1] was 11 µM; in [10], 1 to 25 µM; in [2] it was 10 µM; in [3] it was 11 µM; in data set [4], 11 µM; in data set [5], 17 µM. In addition, the IC50 in [6] worked out at 11 µM; in data set [7], 11 µM; in data set [8], 14 µM; in data set [9] it was 11 µM. In data set [1], the “Selectivity Index (SI) HCT 116” value is given as 1.27. Also, the selectivity ratio at 48 h in [11] was determined as 1.4. The “Selectivity Index (SI) PC3” value in data set [3] was 1.27. The “Selectivity Index (SI) MCF7” value in data set [4] worked out at 1.27. The “Selectivity Index (SI) PANC1” value in data set [5] (SI = IC50 fibroblasts/IC50 on PANC1) is 0.82. Moreover, the “Selectivity Index (SI) MDA MB468” value in data set [6] stood at 1.27. Moreover, the “Selectivity Index (SI) MDA MB231” value in [7] is given as 1.27. Further, the “effect on fibroblasts (healthy skin cell), in words” value (shortened to “effect on fibroblasts”) in [8] is “cytotoxic on fibroblasts”. Besides, the “Selectivity Index (SI) Huh7 D12” value in [9] is 1.27.
As for `COc1cccc2c1Oc1ncn(/N=C/c3ccc(N(C)C)cc3)c(=N)c1C2` [10g, (3E) 3-N-(4-Dimethylaminophenylmethylidene)amino-4-imino-9-methoxy-3,5-dihydro-4H-chromeno[2,3-d]pyrimidine], the IC50 in [1] is 24 µM; in [10], 1 to 25 µM; in [2], 10 µM; in data set [3] it was 16 µM; in [4], 10 µM; in [6], 18 µM. Moreover, the results for the IC50 in [7], in [8] and in data set [9] were over 25 µM, 11 µM and 6 µM, respectively. In addition, the “Selectivity Index (SI) HCT 116” value in data set [1] is recorded as 0.46. Also, the selectivity ratio at 48 h in data set [11] was determined as 1.1. In addition, the “Selectivity Index (SI) PC3” value in [3] turned out to be 0.69. For the same molecule, the “Selectivity Index (SI) MCF7” value in [4] amounted to 1.1. Further, the “Selectivity Index (SI) MDA MB468” value in data set [6] was determined as 0.61. Also, the “Selectivity Index (SI) MDA MB231” value in data set [7] is under 0.44. In [8], the “effect on fibroblasts” value is listed as “cytotoxic on fibroblasts”. Moreover, the “Selectivity Index (SI) Huh7 D12” value in data set [9] stood at 1.83.
For the molecule `CN(C)c1ccc(/C=N/n2cnc3c(c2=N)Cc2c(ccc4ccccc24)O3)cc1` [10j, (10E) 10-N-(4-Dimethylaminophenylmethylidene)amino-11-imino-11H-naphto[1′,2′:5,6]pyrano[2,3-d]pyrimidine], the IC50 in data set [1] is 24 µM; in [10], 1 to 25 µM; in data set [2] it was 10 µM; in [3], 16 µM; in [4], 10 µM; in data set [6] it was 18 µM. The results for the IC50 in data set [7], in data set [8] and in data set [9] were over 25 µM, 11 µM and 6 µM, respectively. The “Selectivity Index (SI) HCT 116” value in data set [1] was found to be 0.46. In data set [11], the selectivity ratio at 48 h turned out to be 1.1. For the same molecule, in data set [3], the “Selectivity Index (SI) PC3” value amounted to 0.69. The “Selectivity Index (SI) MCF7” value in data set [4] stood at 1.1. Further, in [6], the “Selectivity Index (SI) MDA MB468” value is 0.61. Besides, in data set [7], the “Selectivity Index (SI) MDA MB231” value is listed as under 0.44. For the same molecule, the “effect on fibroblasts” value in [8] is given as “cytotoxic on fibroblasts”. Further, in data set [9], the “Selectivity Index (SI) Huh7 D12” value came out at 1.83.
In the case of `COc1cccc2c1C(=O)c1c(O)c3c(c(O)c1C2=O)C[C@@](O)(C(=O)CO)C[C@@H]3O[C@H]1C[C@H](N)[C@H](O)[C@H](C)O1` [Doxorubicin, reference compound], the IC50 in data set [1] was 0.07 µM; in data set [2], 0.03 µM; in [3], 0.07 µM; in data set [4], 0.09 µM; in data set [6], 0.03 µM; in [7] it was 0.02 µM. Moreover, the IC50 stood at 0.01 µM in data set [8] and 0.06 µM in data set [9]. The “Selectivity Index (SI) HCT 116” value in data set [1] is 0.14. Besides, in data set [11], the selectivity ratio at 48 h is 0.33. In addition, the “Selectivity Index (SI) PC3” value in data set [3] stood at 0.14. Moreover, the “Selectivity Index (SI) MCF7” value in data set [4] was 0.11. The “Selectivity Index (SI) MDA MB468” value in [6] is listed as 0.33. In [7], the “Selectivity Index (SI) MDA MB231” value is recorded as 0.50. Also, the “Selectivity Index (SI) Huh7 D12” value in data set [9] is 0.16.
Regarding `C#Cc1cccc(Nc2ncnc3cc(OCCOC)c(OCCOC)cc23)c1` [erlotinib, reference compound], in data set [12] (1 μM dose, 72 hpf), the “toxicity on zebrafish embryos” value was “no toxicity”. In [12] (treatment for 48 and 72 hpf), the “hatching of the embryos” value is given as “complete hatching”.
